In brackets after ≈: the same amount, converted by molar mass. Several values for one entry are separate records, joined by “and”; a condition that tells them apart may be missing. Equal values may be shown once. Entries after “also recorded” stand apart in the source; their conditions may differ. Read-outs that look alike come from different tables or passages of the source. One block for each compound: values may come before it.
How the values were obtained:
Assay type in all cases: physicochemical
[1] = Intrinsic dissolution rate (IDR), μDISS Profiler; conditions: for IDR: 37.0 ± 0.5° C., 100 rpm
Description: The intrinsic dissolution rate (IDR) describes how fast a compound is released from its solid-state form into solution. The intrinsic dissolution rate is defined as the rate of dissolution of a pure active pharmaceutical ingredient when surface area, stirring speed, pH and ionic-strength of the dissolution medium are kept constant. Thus, it is measured as the release of API from a flat and well-defined surface area into an aqueous solution at a given pH value. By exposing the surface area of a material to an appropriate dissolution medium while maintaining constant temperature, stirring rate, and pH, the intrinsic dissolution rate can be determined. Typically the intrinsic dissolution is expressed in terms of mg per minute per cm^2.
Intrinsic Dissolution Method Parameters:
Pellet Compression Parameters

[2] = Long term storage of liquid aqueous suspension (disproportionation, polymorph conversion)
Description: A liquid aqueous suspension comprising Form 1 of the hemi (L)-tartrate form of rilematovir as described in Examples 10, 11, 14 or 15 was stored in a sealed glass vial at a temperature of 30° C., 40° C., and 50° C. Over a period of 8 months samples were taken and analysed (e.g. by XPRD or solid state ^19F-NMR spectroscopy).
FIG. 6 is the solid state ^19F-NMR spectrum of Form 1 having peaks at −70.004 ppm and −73.248 ppm. FIG. 7 is the solid state ^19F-NMR spectrum of Form 3 having a peak at −70.122 ppm.

[3] = Equilibrium (thermodynamic) solubility in fed state human intestinal fluids; conditions: for solubility Conc / solubility at 24 h: Fed HR pool human intestinal fluids, 37° C., 24 hours; for solubility at 24 h: human, 37 °C, plasma or biological fluid, thermodynamic from solid
Description: Determination of the equilibrium solubility of rilematovir in its free base form and its hemi (L)-tartrate form in fed state human intestinal fluids.
The thermodynamic solubility of rilematovir and the hemi (L)-tartrate form of rilematovir was determined using human intestinal fluids obtained from human volunteers in fed state. The pools of human intestinal fluids were prepared from individual intestinal aspirates collected among healthy volunteers under fed state conditions. Fed HR (high responders) pools were build up from duodenal samples in the fed state from volunteers with a clear postprandial bile salt increase.
A small magnetic stirrer bar (about 5 mm in length) and 300 μl of the respective human intestinal fluids at 37° C. were added to the Eppendorf tubes containing an excess of test compound. The mixtures were vortexed for a few seconds and placed on a magnetic stirrer plate (100 rpm) at 37° C.
After 24 hours, the Eppendorf tubes were centrifuged for 5 minutes at 12000 rpm (to separate dissolved from non-dissolved material). 10 µl of the supernatant was diluted into 100 μl methanol), well mixed and centrifuged for 1 minute to separate precipitated protein fraction. The test compound was quantified in the resulting supernatant using UPLC-UV quantification.
The pH was measured at the end of the experiment for each condition (pHend in Table 1).

[4] = Kinetic solubility in biorelevant media (FaSSIF, FeSSIF) with and without HPMC E5; conditions: for solubility kinetic at 30 min / solubility kinetic at 60 min / solubility kinetic at 120 min: thermodynamic from solid, as μg rilematovir/mL; for solubility kinetic at 30 min: read-out: kinetic solubility, concentration at 30 minutes; for solubility kinetic at 60 min: read-out: kinetic solubility, concentration at 60 minutes; for solubility kinetic at 120 min: read-out: kinetic solubility, concentration at 120 minutes
Description: The kinetic solubility of rilematovir and the hemi (L)-tartrate form of rilematovir in different biorelevant medium (FaSSIF and FeSSIF) in the presence or absence of HPMC E5 was analysed.
An excess amount of rilematovir or the hemi (L)-tartrate form of rilematovir was added to biorelevant medium (approximately 5 mg solid/mL medium was used).
The media were stirred at 150 rpm at a temperature of 37° C. Time-dependent measurements were performed by removing 10 mL aliquots after 30 minutes, 1 hour and 2 hours. Undissolved solid material in the aliquot was removed using a Whatman SPARTAN RC syringe filter (diameter: 30 mm; pore size: 0.2 μm). Afterwards, a suitable dilution was made in NMP/water 30/70; v/v to avoid precipitation. The concentration of rilematovir, or the hemi (L)-tartrate form of rilematovir, in solution was determined using UPLC-UV.

[5] = aqueous with cosolvent or surfactant or cyclodextrin, FaSSIF pH 6.5, HPMC E5 1.39 mg/mL, 37° C.
[6] = aqueous with cosolvent or surfactant or cyclodextrin, FeSSIF pH 5.0, HPMC E5 1.39 mg/mL, 37° C.
[7] = FaSSIF pH 6.5, no HPMC E5, 37° C.
[8] = FeSSIF pH 5.0, no HPMC E5, 37° C.
[9] = FaSSIF with HPMC E5, aqueous with cosolvent or surfactant or cyclodextrin, FaSSIF pH 6.5, HPMC E5 1.39 mg/mL, 37° C.
[10] = FeSSIF with HPMC E5, aqueous with cosolvent or surfactant or cyclodextrin, FeSSIF pH 5.0, HPMC E5 1.39 mg/mL, 37° C.

IDR ([1]; Medium: 0.01N HCl): 32.77 μg/min/cm^2
IDR ([1]; Medium: Blank FaSSIF): 1.62 μg/min/cm^2
IDR ([1]; Medium: FASSIF): 1.18 μg/min/cm^2
Compound: CS(=O)(=O)CCCn1c(Cn2c(=O)n(CC(F)(F)F)c3ccncc32)cc2cc(Cl)ccc21.CS(=O)(=O)CCCn1c(Cn2c(=O)n(CC(F)(F)F)c3ccncc32)cc2cc(Cl)ccc21.O=C(O)C(=O)O [hemi oxalic co-crystal]

polymorph conversion in liquid aqueous suspension ([2]; storage of aqueous suspension over time, XRPD and solid state 19F-NMR): over time Form 1 converts into Form 3
IDR ([1]; Medium: 0.01N HCl): 147 μg/min/cm^2
IDR ([1]; Medium: Blank FaSSIF): 5.45 μg/min/cm^2
IDR ([1]; Medium: FASSIF): 2.10 μg/min/cm^2
solubility Conc ([3]; single determinations, listed as hemi tartrate form): 122.93 µg/mL and 126.92 µg/mL
solubility in fed state human intestinal fluids relative to free base form ([3]; fed state human intestinal fluids): more than three times higher
solubility at 24 h ([3]; average of three, read-out: solubility Average): 117 µg/mL
solubility at 24 h ([3]; single determinations, read-out: solubility Conc): 102 µg/mL
solubility kinetic at 30 min [4, 5]: 108 µg/mL
solubility kinetic at 60 min [4, 5]: 93.1 µg/mL
solubility kinetic at 120 min [4, 5]: 75.9 µg/mL
solubility kinetic at 30 min [4, 6]: 1010 µg/mL
solubility kinetic at 60 min [4, 6]: 853 µg/mL
solubility kinetic at 120 min [4, 6]: 689 µg/mL
solubility kinetic at 30 min [4, 7]: 4.4 µg/mL
solubility kinetic at 60 min [4, 7]: 3.4 µg/mL
solubility kinetic at 120 min [4, 7]: 3 µg/mL
solubility kinetic at 30 min [4, 8]: 82.8 µg/mL
solubility kinetic at 60 min [4, 8]: 67.1 µg/mL
solubility kinetic at 120 min [4, 8]: 58.6 µg/mL
Compound: CS(=O)(=O)CCCn1c(Cn2c(=O)n(CC(F)(F)F)c3ccncc32)cc2cc(Cl)ccc21.O=C(O)C(O)C(O)C(=O)O [hemi (L)-tartrate form of rilematovir]
disproportionation in liquid aqueous suspension ([2]; sealed glass vial, 30° C., 40° C., 50° C., 8 months, XRPD or solid state 19F-NMR): does not disproportionate; also recorded: no disproportionation has been observed
intrinsic dissolution rate (IDR) compared with free base form ([1]; three biorelevant media): higher than the free base form of rilematovir
kinetic solubility relative to free base ([4]; biorelevant media, absence of the suspending agent HPMC): three (in FaSSIF) to six (in FeSSIF) times higher

IDR ([1]; Medium: 0.01N HCl): 8.98 μg/min/cm^2
IDR ([1]; Medium: Blank FaSSIF): 3.06 μg/min/cm^2
IDR ([1]; Medium: FASSIF): <1 μg/min/cm^2
solubility Conc ([3]; single determinations, listed as free base): 36.80 µg/mL and 32.50 µg/mL
solubility at 24 h ([3]; fed state human intestinal fluids (Fed HR pool), average of three, read-out: solubility Average): 34.4 µg/mL (≈ 68.7 µM)
solubility at 24 h ([3]; fed state human intestinal fluids (Fed HR pool), single determinations, read-out: solubility Conc): 34 µg/mL (≈ 67.8 µM)
solubility kinetic at 30 min [4, 9]: 1.2 µg/mL (≈ 2.4 µM)
solubility kinetic at 60 min [4, 9]: 1.3 µg/mL (≈ 2.6 µM)
solubility kinetic at 120 min [4, 9]: 1.5 µg/mL (≈ 2.99 µM)
solubility kinetic at 30 min [4, 10]: 12.3 µg/mL (≈ 24.6 µM)
solubility kinetic at 60 min [4, 10]: 13.4 µg/mL (≈ 26.8 µM)
solubility kinetic at 120 min [4, 10]: 13.9 µg/mL (≈ 27.7 µM)
solubility kinetic at 30 min [4, 7]: 1.1 µg/mL (≈ 2.2 µM)
solubility kinetic at 60 min [4, 7]: 1.1 µg/mL (≈ 2.2 µM)
solubility kinetic at 120 min [4, 7]: 1.2 µg/mL (≈ 2.4 µM)
solubility kinetic at 30 min [4, 8]: 12.5 µg/mL (≈ 25 µM)
solubility kinetic at 60 min [4, 8]: 13.2 µg/mL (≈ 26.4 µM)
solubility kinetic at 120 min [4, 8]: 13.7 µg/mL (≈ 27.3 µM)
Compound: CS(=O)(=O)CCCn1c(Cn2c(=O)n(CC(F)(F)F)c3ccncc32)cc2cc(Cl)ccc21 [rilematovir, 3-({5-chloro-1-[3-(methylsulfonyl)propyl]-1H-indol-2-yl}methyl)-1-(2,2,2-trifluoroethyl)-1,3-dihydro-2H-imidazo[4,5-c]pyridin-2-one]

— patent US12145933B2, “Hemi (L)-tartrate forms of 3-({5-chloro-1-[3-(methylsulfonyl)propyl]-1H-indol-2-yl}methyl)-1-(2,2,2-trifluoroethy)-1,3-dihydro-2H-imidazo[4,5-C]pyridin-2-one and pharmaceutical compositions comprising the same” (Janssen Sciences Ireland Unlimited Company, priority 2020, dated 2024)
